Measurements reported in article PMC10913730, “Antimicrobial activity of a natural compound and analogs against multi-drug-resistant Gram-positive pathogens” (Microbiology Spectrum, 2024).
In brackets after ≈: the same amount, converted by molar mass. Where two headings read alike, the source gives them in different places. Each block holds one compound with its values, some of them ahead of it.

What was measured:
MRSA isolates = test: MIC/MBC, CLSI broth microdilution, MRSA isolates; format: cell-based, Staphylococcus aureus
MRSA isolate TCH 1516 [1] = test: Resistance acquisition during serial passage; format: cell-based, Staphylococcus aureus; conditions: serial passage
Procedure: MRSA isolate TCH 1516 was grown to the stationary phase (OD650 = 1.0) in 10 mL of MH broth. […] The second highest drug concentration resulting in bacterial growth (OD650 >1.0) was used as the inoculum after a 1:1,000 dilution for subsequent steps, every 24 hours, for up to 21 days.

[2] = tested on: Staphylococcus epidermidis isolates; test: microbe, parasite or virus in culture; format: cell-based
[3] = tested on: MRSA isolates SA LL 06 and TCH 1516; test: Kill kinetics against stationary-phase MRSA; format: cell-based, Staphylococcus aureus; conditions: shaking, 37°C
Procedure: MRSA isolates, TCH 1516 and SA LL 06, were grown to the stationary phase, and the rate of bacterial killing was determined. Frozen bacterial stocks were streaked onto TSA plates and grown overnight. A single colony was selected and incubated overnight in LB broth at 37°C with constant orbital shaking at 200 RPM. Next, bacterial suspension was washed twice with 150 mM sodium chloride and resuspended in MH broth at a concentration of 1.2E9 CFU/mL. […] Glass tubes containing 5 mL of bacteria and drug solutions were grown in a shaking incubator at 37°C. At 0, 4, 8, and 24 hours, bacterial suspensions were collected, serially diluted, and plated onto a blood agar plate. Bacteria were allowed to grow for 24 hours and were enumerated to yield colony-forming units per milliliter.

[4] = tested on: MRSA isolate SAD05 biofilms; format: cell-based, Staphylococcus aureus; conditions: 72-hour biofilms of SAD05, MBEC assay
MRSA isolate TCH 1516 [5] = test: Single-step resistance development; format: cell-based, Staphylococcus aureus
Procedure: For the single-step study, bacteria were grown to the stationary phase as described above. Bacteria at a concentration of 1E9 CFU were then plated onto C59 and vancomycin-loaded plates containing 1×, 2×, 4×, and 8× MIC concentrations of the therapeutic agents with 1% DMSO. Bacteria were incubated at 37°C for 48 hours, and colony counts were enumerated to calculate the frequency of resistance development, as described in the literature ([45], [46]).

[6] = Staphylococcus aureus, 39 evaluated MRSA isolates, CLSI broth microdilution, read-out: MBC90
[7] = Staphylococcus aureus, 39 evaluated MRSA isolates, CLSI broth microdilution, read-out: MIC90
[8] = Staphylococcus aureus, MRSA, pH 5.5, MRSA 0606, pH 5.5
[9] = Staphylococcus aureus, MRSA, pH 5.5, MRSA 0608, pH 5.5
[10] = Staphylococcus aureus, MRSA, pH 5.5, MRSA 0634, pH 5.5
[11] = Staphylococcus aureus, MRSA, pH 5.5, MRSA 0641, pH 5.5
[12] = Staphylococcus aureus, MRSA, pH 5.5, MRSA 0646, pH 5.5
[13] = Staphylococcus aureus, MRSA, pH 5.5, TCH 1516, pH 5.5
[14] = Staphylococcus aureus, MRSA, pH 6.5, MRSA 0606, pH 6.5
[15] = Staphylococcus aureus, MRSA, pH 6.5, MRSA 0608, pH 6.5
[16] = Staphylococcus aureus, MRSA, pH 6.5, MRSA 0634, pH 6.5
[17] = Staphylococcus aureus, MRSA, pH 6.5, MRSA 0641, pH 6.5
[18] = Staphylococcus aureus, MRSA, pH 6.5, MRSA 0646, pH 6.5
[19] = Staphylococcus aureus, MRSA, pH 6.5, TCH 1516, pH 6.5
[20] = 21 Staphylococcus epidermidis isolates

- MIC90 (MRSA isolates; [7]): 2 µg/mL (≈ 1.23 µM)
SMILES: CCCCCCCCCC(=O)N[C@@H](Cc1c[nH]c2ccccc12)C(=O)N[C@H](CC(N)=O)C(=O)N[C@@H](CC(=O)O)C(=O)N[C@@H]1C(=O)NCC(=O)N[C@@H](CCCN)C(=O)N[C@@H](CC(=O)O)C(=O)N[C@H](C)C(=O)N[C@@H](CC(=O)O)C(=O)NCC(=O)N[C@H](CO)C(=O)N[C@@H]([C@H](C)CC(=O)O)C(=O)N[C@@H](CC(=O)c2ccccc2N)C(=O)O[C@@H]1C [Daptomycin, daptomycin, reference compound]
- MBC (MRSA isolates; [6]): 2 µg/mL (≈ 1.23 µM)

SMILES: CC(=O)NC[C@H]1CN(c2ccc(N3CCOCC3)c(F)c2)C(=O)O1 [Linezolid, linezolid, reference compound]
- MBC (MRSA isolates; [6]): > 32 µg/mL
- MIC90 (MRSA isolates; [7]): 4 µg/mL (≈ 11.9 µM)
- increase in MIC (MRSA isolate TCH 1516 [1]; after 21 days): 16 fold

SMILES: CN[C@H](CC(C)C)C(=O)N[C@H]1C(=O)N[C@@H](CC(N)=O)C(=O)N[C@H]2C(=O)N[C@H]3C(=O)N[C@H](C(=O)N[C@H](C(=O)O)c4cc(O)cc(O)c4-c4cc3ccc4O)[C@H](O)c3ccc(c(Cl)c3)Oc3cc2cc(c3O[C@@H]2O[C@H](CO)[C@@H](O)[C@H](O)[C@H]2O[C@H]2C[C@](C)(N)[C@H](O)[C@H](C)O2)Oc2ccc(cc2Cl)[C@H]1O [Vancomycin, vancomycin, reference compound]
- MBC (MRSA isolates; MRSA 0606, pH 7.4): 2 µg/mL (≈ 1.38 µM)
- MIC (MRSA isolates; MRSA 0606, pH 7.4): 2 µg/mL (≈ 1.38 µM)
- MBC (MRSA isolates; MRSA 0608, pH 7.4): 6 µg/mL (≈ 4.14 µM)
- MIC (MRSA isolates; MRSA 0608, pH 7.4): 2 µg/mL (≈ 1.38 µM)
- MBC (MRSA isolates; MRSA 0634, pH 7.4): 6 µg/mL (≈ 4.14 µM)
- MIC (MRSA isolates; MRSA 0634, pH 7.4): 2 µg/mL (≈ 1.38 µM)
- MBC (MRSA isolates; MRSA 0641, pH 7.4): 4 µg/mL (≈ 2.76 µM)
- MIC (MRSA isolates; MRSA 0641, pH 7.4): 1 µg/mL (≈ 0.69 µM)
- MBC (MRSA isolates; MRSA 0646, pH 7.4): 6 µg/mL (≈ 4.14 µM)
- MIC (MRSA isolates; MRSA 0646, pH 7.4): 2 µg/mL (≈ 1.38 µM)
- MIC90 (MRSA isolates; Staphylococcus aureus, MRSA, 39 evaluated MRSA isolates, CLSI broth microdilution): 2 µg/mL (≈ 1.38 µM)
- MIC (MRSA isolates; Staphylococcus aureus, MRSA, SA LL 06, as given for the kill kinetic assay): 1 µg/mL (≈ 0.69 µM)
- MIC (MRSA isolates; Staphylococcus aureus, MRSA, TCH 1516, as given for the kill kinetic assay): 4 µg/mL (≈ 2.76 µM)
- MBC (MRSA isolates; [8]): 2 µg/mL (≈ 1.38 µM)
- MIC (MRSA isolates; [8]): 2 µg/mL (≈ 1.38 µM)
- MBC (MRSA isolates; [9]): 4 µg/mL (≈ 2.76 µM)
- MIC (MRSA isolates; [9]): 4 µg/mL (≈ 2.76 µM)
- MBC (MRSA isolates; [10]): 8 µg/mL (≈ 5.52 µM)
- MIC (MRSA isolates; [10]): 2 µg/mL (≈ 1.38 µM)
- MBC (MRSA isolates; [11]): 2 µg/mL (≈ 1.38 µM)
- MIC (MRSA isolates; [11]): 2 µg/mL (≈ 1.38 µM)
- MBC (MRSA isolates; [12]): 8 µg/mL (≈ 5.52 µM)
- MIC (MRSA isolates; [12]): 2 µg/mL (≈ 1.38 µM)
- MBC (MRSA isolates; [13]): 4 µg/mL (≈ 2.76 µM)
- MIC (MRSA isolates; [13]): 2 µg/mL (≈ 1.38 µM)
- MBC (MRSA isolates; Staphylococcus aureus, MRSA, pH 5.5, read-out: Average MBC, average of six MRSA isolates, pH 5.5): 4.7 µg/mL (≈ 3.24 µM)
- MIC (MRSA isolates; Staphylococcus aureus, MRSA, pH 5.5, read-out: Average MIC, average of six MRSA isolates, pH 5.5): 2.3 µg/mL (≈ 1.59 µM)
- MBC (MRSA isolates; [14]): 4 µg/mL (≈ 2.76 µM)
- MIC (MRSA isolates; [14]): 1 µg/mL (≈ 0.69 µM)
- MBC (MRSA isolates; [15]): 2 µg/mL (≈ 1.38 µM)
- MIC (MRSA isolates; [15]): 2 µg/mL (≈ 1.38 µM)
- MBC (MRSA isolates; [16]): 4 µg/mL (≈ 2.76 µM)
- MIC (MRSA isolates; [16]): 2 µg/mL (≈ 1.38 µM)
- MBC (MRSA isolates; [17]): 2 µg/mL (≈ 1.38 µM)
- MIC (MRSA isolates; [17]): 1 µg/mL (≈ 0.69 µM)
- MBC (MRSA isolates; [18]): 2 µg/mL (≈ 1.38 µM)
- MIC (MRSA isolates; [18]): 2 µg/mL (≈ 1.38 µM)
- MBC (MRSA isolates; [19]): 2 µg/mL (≈ 1.38 µM)
- MIC (MRSA isolates; [19]): 1 µg/mL (≈ 0.69 µM)
- MBC (MRSA isolates; Staphylococcus aureus, MRSA, pH 6.5, read-out: Average MBC, average of six MRSA isolates, pH 6.5): 2.3 µg/mL (≈ 1.59 µM)
- MIC (MRSA isolates; Staphylococcus aureus, MRSA, pH 6.5, read-out: Average MIC, average of six MRSA isolates, pH 6.5): 1.5 µg/mL (≈ 1.04 µM)
- MBC (MRSA isolates; Staphylococcus aureus, MRSA, pH 7.4, read-out: Average MBC, average of six MRSA isolates, pH 7.4): 4.2 µg/mL (≈ 2.9 µM)
- MIC (MRSA isolates; Staphylococcus aureus, MRSA, pH 7.4, read-out: Average MIC, average of six MRSA isolates, pH 7.4): 1.7 µg/mL (≈ 1.17 µM)
- MBC (MRSA isolates; Staphylococcus aureus, MRSA, read-out: MBC90, 39 evaluated MRSA isolates, CLSI broth microdilution): 16 µg/mL (≈ 11 µM)
- MBC (MRSA isolates; TCH 1516, pH 7.4): 1 µg/mL (≈ 0.69 µM)
- MIC (MRSA isolates; TCH 1516, pH 7.4): 1 µg/mL (≈ 0.69 µM)
- change of MIC and MBC with the reduction in pH (MRSA isolates; six MRSA isolates, pH lowered to 5.5): increased
- MBC range [2, 20]: 2 to 16 µg/mL
- MIC range [2, 20]: 1 to 8 µg/mL
- MIC90 ([2]; Staphylococcus epidermidis): 4 µg/mL (≈ 2.76 µM)
- MBC ([2]; Staphylococcus epidermidis, read-out: MBC90): 8 µg/mL (≈ 5.52 µM)
- bacterial killing after 24 hours ([3]; stationary-phase SA LL 06, C59 at 1× and 2× MIC): complete lack of bacterial inhibition
- bacterial killing after 24 hours ([3]; stationary-phase TCH 1516): significantly higher bacterial burden
- concentration that completely eradicated biofilms [4]: did not demonstrate activity against MRSA biofilms
- frequency of resistance acquisition (MRSA isolate TCH 1516 [5]; TCH 1516, 2× MIC): 1.83 × 10^−8 ± 7.10 × 10^−9
- frequency of resistance acquisition (MRSA isolate TCH 1516 [5]; TCH 1516, 4× MIC): 1.56 × 10^−9 ± 7.12 × 10^−10
- frequency of resistance acquisition (MRSA isolate TCH 1516 [5]; TCH 1516, 8× MIC): 5.77 × 10^−10 ± 2.77 × 10^−10
- growth on drug-loaded plates (MRSA isolate TCH 1516 [5]; TCH 1516 stationary phase, C59 as low as 2× MIC, vancomycin up to 8× MIC): bacterial growth was observed
- initial increase in MIC (MRSA isolate TCH 1516 [1]; within 7 days, stable thereafter): sixfold
